Test results taken from US9200047B2, “SSX-2 peptides presented by HLA class II molecules” (Ludwig Institute for Cancer Research, Ltd., priority 2003, dated 2015).

How the values were obtained:
Type in all cases: cell-based, human
[1] = tested on: SSX-2 specific CD4^+ T cells (clone 2C3); assay: IFN-γ secretion (ELISA) by SSX-2 specific CD4+ T cell clone in response to extended or truncated peptides; conditions: for peptide recognition relative to SEQ ID NO:1 (IFN-γ secretion): clone 2C3, EBV LAU 149 as APC, serial peptide dilutions, ELISA after 24 hrs
Method: FIG. 2 depicts determination of the minimal sequence optimally recognized by SSX-2 specific CD4^+ T cells. Synthetic peptides extended or truncated at the SSX-213-34 N- or C-terminus were used to determine the minimal length of the epitope recognized by SSX-2 specific CD4^+ T cells. Serial dilutions of each peptide were incubated with EBV LAU 149 and SSX-2 specific CD4^+ T cells. IFN-γ secretion was determined by ELISA in the culture supernatant after 24 hrs of culture. The peptides tested were: […] (SSX-213-34; SEQ ID NO:1); […] (SSX-213-36; SEQ ID NO:2); […] (SSX-213-32; SEQ ID NO:3); VGAQIPEKIQKAFDDIAK (SSX-213-30; SEQ ID NO:4); IPEKIQKAFDDIAKYFSK (SSX-217-34; SEQ ID NO:5); EKIQKAFDDIAKYFSK (SSX-219-34; SEQ ID NO:6); IQKAFDDIAKYFSK (SSX-221-34; SEQ ID NO:7) and […] (SSX-261-82; SEQ ID NO:30).
(§1) For intracellular cytokine secretion detection T cells were incubated with APC at a 1:1 T cells:APC ratio during 4-6 h in the absence or in the presence of peptides at the indicated dose. One hour after the beginning of the incubation Brefeldin A (20 μg/ml, Sigma Chemical Co., Steinheim, Germany) was added to inhibit cytokine secretion. At the end of the incubation period cells were stained with anti-CD4 mAb for 20 min at 4° C. and fixed. Cells were then permeabilized using saponine (Sigma, 0.1% in PBS 10% FCS) stained by incubation with mAb against IFN-γ or IL-2 (BD, Pharmingen) and analyzed by flow cytometry. Data analysis was performed using Cell Quest software. For detection of cytokine secretion in the culture supernatant T cells (10,000) were incubated with stimulating cells (15,000/well) in 96-well round-bottom plates in 200 μl/well of IMDM containing 10% human serum and 20 U/ml hrIL2. After 24 h incubation at 37° C., culture supernatants were collected and the content of IFN-γ determined by ELISA (BioSource Europe, Fleurus, Belgium). IFN-γ ELISPOT assay was performed as described previously (Ayyoub M. et al, 2002, J Immunol 32:2292-2299) using nitrocellulose-lined 96-well microplates (MAHA S45: Millipore, Bedford, Mass.) and an IFN-γ ELISPOT kit (DIACLONE, Besancon, France). Stimulator cells (5×10^4/well) were added together with the indicated number of T cells and peptide (2 μM) where indicated. Spots were counted using a stereomicroscope with a magnification of ×15.
To more precisely define the SSX-2-derived peptide optimally recognized by specific CD4^+ T cells from patient 672, we analyzed the relative capacity of peptide SEQ ID to NO:1 extended or truncated variants to stimulate IFN-γ secretion by specific clonal T cells (clone 2C3). […] Similar results were obtained using another CD4^+ T cell clone (not shown).

[2] = tested on: CD4^+ T cells; assay: Intracellular IFN-γ / IL-2 staining of peptide-stimulated CD4+ T cell cultures from melanoma patients; conditions: culture from patient 672; not shown
Method: FIGS. 1A and 1B show detection of SSX-2 specific CD4^+ T cells in peptide stimulated cultures. The presence of specific CD4^+ T cells in the culture from patient 672 was assessed by intracellular staining with anti-IFN-γ (FIG. 1A, left panels) or anti-IL-2 antibodies (FIG. 1A, right panels) after stimulation with autologous PBMC alone (upper panels) or with the peptide submixture P1-3 (containing SSX-2 peptides 1-22, 13-34, 25-46). Numbers in upper right quadrants are percent of cytokine producing cells among CD4^+ T cells.
In vitro sensitization of CD4^+ T cells was carried out as described previously for CD8^+ T cells. […]
(§2) For intracellular cytokine secretion detection T cells were incubated with APC at a 1:1 T cells:APC ratio during 4-6 h in the absence or in the presence of peptides at the indicated dose. […] Cells were then permeabilized using saponine (Sigma, 0.1% in PBS 10% FCS) stained by incubation with mAb against IFN-γ or IL-2 (BD, Pharmingen) and analyzed by flow cytometry. […] After 24 h incubation at 37° C., culture supernatants were collected and the content of IFN-γ determined by ELISA (BioSource Europe, Fleurus, Belgium). […] Spots were counted using a stereomicroscope with a magnification of ×15. […]

[3] = tested on: SSX-2 specific CD4^+ T cells; assay: Presentation of peptide SSX-2 13-34 by APC bearing different HLA-DP alleles (intracellular IFN-γ secretion); conditions: healthy donors (Caucasian); not shown
Method: FIG. 3A: Intracellular IFN-γ secretion by SSX-2 specific CD4+ T cells (clone 3C8) upon stimulation with peptide SSX-213-34 was assessed both in the absence and in the presence of anti HLA-DR, -DP or -DQ antibodies. FIG. 3B: The ability of APC bearing different HLA-DP alleles to present peptide SSX-2 13-34 to specific CD4^+ T cells was assessed by intracellular IFN-γ secretion.
Molecular typing of HLA-DP molecules, construction of plasmids and transient transfection. […]
as §2

[4] = tested on: SSX-2 specific CD4^+ T cells; assay: Presentation of exogenously added peptide by melanoma cell lines to specific CD4+ T cell clones (ELISPOT); conditions: two lines, Me 260 and T465A
Method: FIGS. 4A and 4B show the lack of tumor recognition by SSX-2 13-34 specific CD4^+ T cells. FIG. 4A: Recognition of Me 260 cells by CD4+ T cells was tested by ELISPOT in the absence or in the presence of exogeneously added peptide SSX-213-34. Where indicated, cells were treated with IFN-γ during 48 hr. FIG. 4B: Recognition of T465A was assessed as in […] as well as upon transfection with an SSX-2 encoding plasmid. The CD8+ T cell clone B3.4 specific for peptide SSX-2 41-49 was used as an internal control.
For intracellular cytokine secretion detection T cells were incubated with APC at a 1:1 T cells:APC ratio during 4-6 h in the absence or in the presence of peptides at the indicated dose. One hour after the beginning of the incubation Brefeldin A (20 μg/ml, Sigma Chemical Co., Steinheim, Germany) was added to inhibit cytokine secretion. At the end of the incubation period cells were stained with anti-CD4 mAb for 20 min at 4° C. and fixed. Cells were then permeabilized using saponine (Sigma, 0.1% in PBS 10% FCS) stained by incubation with mAb against IFN-γ or IL-2 (BD, Pharmingen) and analyzed by flow cytometry. Data analysis was performed using Cell Quest software. […] After 24 h incubation at 37° C., culture supernatants were collected and the content of IFN-γ determined by ELISA (BioSource Europe, Fleurus, Belgium). […] Spots were counted using a stereomicroscope with a magnification of ×15. […]

[5] = tested on: SSX-2 13-34 specific CD4^+ T cell clone 3C8; assay: Processing of soluble recombinant protein by professional APC and presentation to specific CD4+ T cells (ELISPOT)
Method: FIG. 5A: The ability of EBV LAU 149 to process the SSX-2 protein and present the relevant epitope to specific CD4+ T cells was assessed by ELISPOT after 12 hrs incubation with soluble recombinant SSX-2 protein followed by washing. NY-ESO-1 protein was used as an internal control. FIGS. 5B and 5C: Processing and presentation of the SSX-2 CD4^+ T cell epitope by LAU 672 autologous monocyte-derived DC was assessed as in FIG. 5A.
as §1
We then assessed the ability of professional APC to process the SSX-2 antigen and present the SSX-2 13-34 epitope to specific CD4^+ T cells.

[6] = tested on: clonal CD8^+ T cells (clone B3.4); assay: Processing of exogenous SSX-2 protein by professional APC and recognition by SSX-2 41-49 specific CD8+ T cells; conditions: EBV and DC as APC

Molecule: EKIQKAFDDIAKYFSK (listed as Homo sapiens) [SEQ ID NO:6]
- peptide recognition relative to SEQ ID NO:1 (IFN-γ secretion) [1]: did not significantly affect recognition
- epitope mapping: minimal peptide among analyzed peptides ([1]; clone 2C3, similar results with another CD4+ T cell clone): minimal peptide optimally recognized

Molecule: IPEKIQKAFDDIAKYFSK (listed as Homo sapiens) [SEQ ID NO:5]
- peptide recognition relative to SEQ ID NO:1 (IFN-γ secretion) [1]: did not significantly affect recognition

Molecule: IQKAFDDIAKYFSK (listed as Homo sapiens) [SEQ ID NO:7]
- reduction of peptide activity ([1]; relative to SEQ ID NO:1, clone 2C3, IFN-γ ELISA): 10 fold

Molecule: VGAQIPEKIQKAFDDIAKYFSK (listed as Homo sapiens) [SEQ ID NO:1]
- reactivity of the culture to single peptides in the submixture P1-3 [2]: active peptide
- PBMC from healthy donors able to present the epitope to CD4^+ T cells [3]: 3 out of 14
- presentation of peptide by melanoma cell lines to specific T cell clones [4]: efficiently presented

B1: SSX-2 protein: soluble recombinant SSX-2 protein given to APC (protein, UniProt Q16385 1-188, looked up)
Protein SSX2: MNGDDAFARRPTVGAQIPEKIQKAFDDIAKYFSKEEWEKMKASEKIFYVYMKRKYEAMTKLGFKATLPPFMCNKRAEDFQGNDLDNDPNRGNQVERPQMTFGRLQGISPKIMPKKPAEEGNDSEEVPEASGPQNDGKELCPPGKPTTSEKIHERSGPKRGEHAWTHRLRERKQLVIYEEISDPEEDDE
- processing of protein and presentation of the epitope / stimulation of clone 3C8 ([5]; EBV LAU 149 as APC, 12 hrs incubation with soluble recombinant protein): efficiently process
- stimulation of clone 3C8 ([5]; EBV cells unable to present the peptide as APC): not significantly stimulated
- presentation of the epitope to specific CD4+ T cells ([5]; LAU 672 autologous dendritic cells (DC) as APC): Efficient presentation
- recognition of the CD8^+ T cell epitope SSX-2 41-49 after processing of exogenous protein [6]: did not result in recognition
